Laboratory results as given in PubChem BioAssay (NCI).
Values joined by “and” are separate entries in the source; they are usually repeats but may differ in a detail not shown here. Equal values may be shown once.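 Method: 48-hour compound exposure of cells in 96-well plates, five concentrations, linear interpolation of endpoints. GI50 is the concentration that inhibits growth by half. At the TGI there is no net growth.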

Assays:
Experiment in all cases: NCI-60 cell line screen, 48 h
ACHN renal = tested on: ACHN renal
CCRF-CEM leukemia = tested on: CCRF-CEM leukemia
HL-60(TB) leukemia = tested on: HL-60(TB) leukemia
MALME-3M melanoma = tested on: MALME-3M melanoma
NCI-H226 lung = tested on: NCI-H226 lung
NCI-H522 lung = tested on: NCI-H522 lung
OVCAR-8 ovarian = tested on: OVCAR-8 ovarian
RXF 393 renal = tested on: RXF 393 renal
SF-295 CNS = tested on: SF-295 CNS
SK-MEL-2 melanoma = tested on: SK-MEL-2 melanoma

SMILES	TGI (ACHN renal)	TGI (CCRF-CEM leukemia)	TGI (HL-60(TB) leukemia)	TGI (MALME-3M melanoma)	TGI (NCI-H226 lung)	TGI (NCI-H522 lung)	TGI (OVCAR-8 ovarian)	TGI (RXF 393 renal)	TGI (SF-295 CNS)	TGI (SK-MEL-2 melanoma)	GI50 (ACHN renal)	GI50 (CCRF-CEM leukemia)	GI50 (HL-60(TB) leukemia)	GI50 (MALME-3M melanoma)	GI50 (NCI-H226 lung)	GI50 (NCI-H522 lung)	GI50 (OVCAR-8 ovarian)	GI50 (RXF 393 renal)	GI50 (SF-295 CNS)	GI50 (SK-MEL-2 melanoma)
COC(=O)C1C2C=CC(C2)C1(C(=O)OC)S(=O)CC12CCC(CC1O)C2(C)C (centres undefined)	> 100 µM	> 100 µM	> 100 µM	> 100 µM	> 100 µM	> 100 µM	> 100 µM	> 100 µM	> 100 µM	> 100 µM	–	–	–	–	–	–	–	–	–	–
O=c1c2cccc3cccc(c4oc5c6cccc7cccc(c(=O)c5c14)c76)c32	16.3 µM	22.1 µM	20.7 µM	17.9 µM	> 31.6 µM	10.1 µM	16.1 µM	16.6 µM	> 31.6 µM	23.3 µM	–	–	–	–	–	–	–	–	–	–
COc1ccc(C(=O)COc2cccc(/C=C3\CSc4ccccc4C3=O)c2)cc1	3.86 µM	1.09 µM	> 23.2 µM	5.58 µM	14.9 µM	3.86 µM	6.71 µM	5.39 µM	3.77 µM	3.49 µM	1.93 µM	0.313 µM	2.25 µM	2.2 µM	4.63 µM	1.73 µM	2.65 µM	2.42 µM	1.87 µM	1.86 µM
CC(=O)Nc1ccccc1C=C1c2ccccc2-c2ccccc21	> 100 µM	> 100 µM	> 100 µM	> 100 µM	66.8 µM	> 100 µM	47.4 µM	42.3 µM	46.2 µM	> 100 µM	–	–	–	–	–	–	–	–	–	–
COCC1N=C(c2cc(OC)c(OC)c(OC)c2-c2cc3c(cc2C2OCCCO2)OCO3)O[C@H]1c1ccccc1 (some centres undefined)	> 100 µM	> 100 µM	> 100 µM	> 100 µM	> 100 µM	> 100 µM	> 100 µM	> 100 µM	> 100 µM	> 100 µM	–	–	–	–	–	–	–	–	–	–
O=C1OC(CC(=O)c2ccc(Cl)cc2Cl)C(Cl)=C1Cl (centres undefined)	> 56.9 µM	> 72.7 µM	> 75.6 µM	39.2 µM	> 89.5 µM	34.7 µM	> 60.2 µM	36.3 µM	> 100 µM	41.7 µM	–	–	–	–	–	–	–	–	–	–
CN(C)c1ccc(-c2cc(-c3ccc(Nc4nc(Nc5ccccc5)nc(Nc5ccc(Cl)cc5)n4)cc3)nc(N)n2)cc1	> 100 µM	23 µM	12.2 µM	49.2 µM	98.7 µM	38.7 µM	> 100 µM	12.9 µM	16.6 µM	43.5 µM	5.88 µM	3.73 µM	3.2 µM	4.07 µM	12.1 µM	5.8 µM	5.24 µM	2.78 µM	2.4 µM	7.18 µM
C=CN1C(=O)OC[C@@H]1c1ccccc1	> 100 µM	> 100 µM	> 100 µM	> 100 µM	> 100 µM	> 100 µM	> 100 µM	> 100 µM	> 100 µM	> 100 µM	–	–	–	–	–	–	–	–	–	–
O=C1/C(=C/c2ccccc2F)CNC/C1=C\c1ccccc1F	8.55 µM and 2.58 µM	3.38 µM and 1.61 µM	1.96 µM and 6.92 µM	6.38 µM and 4.51 µM	10.7 µM and 3.91 µM	2.73 µM and 2.8 µM	4.27 µM and 2.91 µM	1.12 µM and 1.87 µM	3.5 µM and 1.71 µM	6.18 µM and 6.46 µM	4.86 µM and 0.779 µM	0.193 µM and 0.314 µM	0.371 µM and 2.04 µM	2.26 µM and 1.83 µM	3.15 µM and 1.46 µM	0.772 µM and 1.3 µM	0.338 µM and 0.369 µM	0.385 µM and 0.728 µM	0.707 µM and 0.531 µM	2.53 µM and 2.77 µM
COC(=O)c1cc(-c2cc(OC)c(OC)c(OC)c2)[nH]c1N/N=C/c1c(Cl)cccc1Cl	9.17 µM	> 100 µM	> 100 µM	8.2 µM	40.3 µM	18.6 µM	20.3 µM	31.4 µM	22.8 µM	17.9 µM	0.963 µM	14.1 µM	–	1.47 µM	9.54 µM	3.39 µM	1.48 µM	7.45 µM	1.01 µM	3.01 µM
COc1ccc(C(=O)/C=C/c2c(C(F)(F)F)nc3sccn23)cc1OC	> 100 µM	> 100 µM	3.86 µM	> 100 µM	> 100 µM	80.7 µM	> 100 µM	29.8 µM	22.6 µM	92.5 µM	5.1 µM	2.33 µM	1 µM	5.92 µM	6.95 µM	2.91 µM	2.4 µM	2.51 µM	3.14 µM	4.08 µM
Cc1cc(NC(=O)NC(=O)c2ccccc2N)ccc1Oc1ncc(Br)cn1	> 100 µM	> 100 µM	1.39 µM	> 69.9 µM	6.64 µM	0.0555 µM	> 46.1 µM	1.62 µM	17 µM	0.481 µM	–	–	–	–	–	–	–	–	–	–
CC1CC(c2cccc3c2OCO3)=Nc2ccccc2S1 (centres undefined)	> 100 µM	> 100 µM	> 100 µM	> 100 µM	> 100 µM	> 100 µM	> 100 µM	> 100 µM	> 100 µM	> 100 µM	–	–	–	–	–	–	–	–	–	–
COc1cc2c3c(n(CCCNCC(OC)OC)c(=O)c2cc1OC)-c1cc2c(cc1C3=O)OCO2	> 37.4 µM	1.8 µM	> 28.3 µM	47.6 µM	42.5 µM	> 100 µM	38.4 µM	21.6 µM	49.4 µM	> 73.5 µM	5.34 µM	< 0.01 µM	2.6 µM	21 µM	6.63 µM	18.2 µM	8.31 µM	3.84 µM	0.303 µM	> 49.1 µM
C=C(C)[C@@H]1CC[C@]2(C(=O)NCCNCCNCCN)CC[C@]3(C)[C@H](CC[C@@H]4[C@@]5(C)CC[C@H](O)C(C)(C)[C@@H]5CC[C@]43C)[C@@H]12	27.3 µM	78.2 µM	31.2 µM	28.4 µM	40.4 µM	25.4 µM	47.1 µM	27.2 µM	30.3 µM	37.3 µM	12 µM	4.55 µM	7.33 µM	14.6 µM	15.5 µM	10.3 µM	18.8 µM	13.2 µM	13.8 µM	16.8 µM
